The results in this text go back to patent US11931343B2 (ARCUS BIOSCIENCES, INC., priority 2018, dated 2024).

Broadly, the IC50 is the concentration at which inhibition is half-maximal.

Some results are limits rather than exact numbers.

This test deals with T1, human CD73 (Homo sapiens, UniProt P21589).
T1 sequence (P21589 27-549): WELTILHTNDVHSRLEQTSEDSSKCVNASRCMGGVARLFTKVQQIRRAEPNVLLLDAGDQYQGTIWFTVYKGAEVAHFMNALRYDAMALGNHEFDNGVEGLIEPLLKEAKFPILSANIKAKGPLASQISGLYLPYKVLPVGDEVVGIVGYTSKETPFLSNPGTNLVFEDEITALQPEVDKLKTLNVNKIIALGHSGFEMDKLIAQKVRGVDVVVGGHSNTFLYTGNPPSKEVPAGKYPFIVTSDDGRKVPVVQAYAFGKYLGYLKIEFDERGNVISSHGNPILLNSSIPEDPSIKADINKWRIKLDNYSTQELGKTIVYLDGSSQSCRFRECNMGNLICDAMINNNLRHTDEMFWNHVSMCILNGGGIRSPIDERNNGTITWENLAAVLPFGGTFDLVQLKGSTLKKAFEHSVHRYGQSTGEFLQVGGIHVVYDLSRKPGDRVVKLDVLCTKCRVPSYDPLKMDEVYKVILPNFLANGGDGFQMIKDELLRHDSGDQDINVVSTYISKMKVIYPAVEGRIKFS
The test can be described thus: Inhibition of Ecto-5′-nucleotidase (CD73) activity in CHO-CD73 cells, phosphate release from AMP. Conditions: CHO-K1 cells stably transfected with human CD73; 25 μM AMP; 50 minutes, 37° C.; read-out: Potency: CD73 IC50. In kind it is cell-based.
Turning to `Cc1cccc(-n2nccc2-c2cc(Cl)c3nnn(-c4ccc5[nH]c(=O)[nH]c5c4)c3c2)c1` [Example 217], the IC50 is 100 to 1000 nM.

For `N#Cc1ccc(Cn2nccc2-c2cnc3c(N)nn(-c4ccc5cn[nH]c5c4)c3c2)cc1` [Example 218], the IC50 was in the range of 100 to 1000 nM.

As to `N#Cc1ccc(Cn2nccc2-c2cnc3c(N)nn(-c4ccc5[nH]c(=O)[nH]c5c4)c3c2)cc1` [Example 219], the IC50 lay within 100 to 1000 nM.

For the molecule `COCc1ccc(Cn2nccc2-c2cc(F)c3nnn(-c4ccc5[nH]c(=O)[nH]c5c4)c3c2)cc1` [Example 220], the IC50 was above 1000 nM.

Take `O=c1[nH]c2ccc(-n3nnc4c(F)cc(-c5ccnn5CCc5ccccc5Cl)cc43)cc2[nH]1` [Example 221]: the IC50 was above 1000 nM.

`O=c1[nH]c2ccc(-n3nnc4c(Cl)cc(-c5ccnn5-c5cccc(C(F)(F)F)c5)cc43)cc2[nH]1` [Example 222]: the IC50 fell in the range of 100 to 1000 nM.

As for `O=c1[nH]c2ccc(-n3nnc4c(F)cc(-c5ccnn5Cc5ccc6[nH]ncc6c5)cc43)cc2[nH]1` [Example 223], the IC50 fell in the range of 100 to 1000 nM.

`Cc1ccc(Cn2nccc2-c2cc(Cl)c3nnn(-c4ccc5[nH]c(=O)[nH]c5c4)c3c2)c(F)c1` [Example 224]: the IC50 was below 100 nM.

As to `Cc1cc(Cl)cnc1Cn1nccc1-c1cc(Cl)c2nnn(-c3ccc4[nH]c(=O)[nH]c4c3)c2c1` [Example 225], the IC50 fell in the range of 100 to 1000 nM.

Regarding `Cc1cc(C)cc(-n2nccc2-c2cc(F)c3nnn(-c4ccc5[nH]c(=O)[nH]c5c4)c3c2)c1` [Example 226], the IC50 lay in the range of 100 to 1000 nM.

Consider `O=c1[nH]c2ccc(-n3nnc4c(F)cc(-c5ccnn5-c5cc(Cl)cc(Cl)c5)cc43)cc2[nH]1` [Example 227], for which the IC50 was 100 to 1000 nM.

Consider `N#Cc1ccc(Cn2nccc2-c2cc(Cl)c3nnn(-c4ccc5[nH]c(=O)[nH]c5c4)c3c2)c(F)c1` [Example 228], for which the half-inhibitory concentration (IC50) was below 100 nM.

With `O=c1[nH]c2ccc(-n3nnc4c(F)cc(-c5ccnn5Cc5cccc6c5OC(F)(F)O6)cc43)cc2[nH]1` [Example 229], the IC50 was above 1000 nM.

On to `O=c1[nH]c2ccc(-n3nnc4c(Cl)cc(-c5ccnn5Cc5ccncc5Cl)cc43)cc2[nH]1` [Example 230], for which the IC50 lay in the range of 100 to 1000 nM.

For `O=c1[nH]c2ccc(-n3nnc4c(F)cc(-c5ccnn5Cc5ccc(Cl)cc5)cc43)cc2[nH]1` [Example 231], the IC50 lay in the range of 100 to 1000 nM.

Take `N#Cc1ccc(Cn2nccc2-c2cc(F)c3nnn(-c4ccc5[nH]c(=O)[nH]c5c4)c3c2)c(N2CCCC2=O)c1` [Example 232]: the IC50 fell in the range of 100 to 1000 nM.

Turning to `O=c1[nH]c2ccc(-n3nnc4c(F)cc(-c5ccnn5Cc5ccc6c(c5)OC(F)(F)O6)cc43)cc2[nH]1` [Example 233], the IC50 is above 1000 nM.

Consider `Cc1ccc(Cn2nccc2-c2cc(Cl)c3nnn(-c4ccc5[nH]c(=O)[nH]c5c4)c3c2)c(Cl)c1` [Example 234], for which the IC50 is 100 to 1000 nM.

For the molecule `N#Cc1ccc(Cn2nccc2-c2cc(F)c3nnn(-c4ccc5[nH]c(=O)[nH]c5c4)c3c2)c(Cl)c1` [Example 235], the 50% inhibitory concentration (IC50) is below 100 nM.

For `COc1cc(F)ccc1Cn1nccc1-c1cc(F)c2nnn(-c3ccc4[nH]c(=O)[nH]c4c3)c2c1` [Example 236], the IC50 was above 1000 nM.

On to `COc1cc(F)ccc1Cn1nccc1-c1cc2c(cn1)nnn2-c1ccc2[nH]c(=O)[nH]c2c1` [Example 237], for which the IC50 is above 1000 nM.

As to `O=c1[nH]c2ccc(-n3nnc4c(Cl)cc(-c5ccnn5Cc5ccncc5F)cc43)cc2[nH]1` [Example 238], the IC50 fell in the range of 100 to 1000 nM.

In the case of `N#Cc1ccc(Cn2nccc2-c2cc(F)c3nnn(-c4ccc5[nH]c(=O)[nH]c5c4)c3c2)c(F)c1` [Example 239], the IC50 is 100 to 1000 nM.

On to `N#Cc1ccc(Cn2nccc2-c2ccc3nnn(-c4ccc5[nH]c(=O)[nH]c5c4)c3c2)c(F)c1` [Example 240], for which the IC50 lay in the range of 100 to 1000 nM.

As to `Cc1cc(C)cc(-n2nccc2-c2cc(Cl)c3nnn(-c4ccc5[nH]c(=O)[nH]c5c4)c3c2)c1` [Example 241], the IC50 lay within 100 to 1000 nM.

Regarding `O=c1[nH]c2ccc(-n3nnc4c(F)cc(-c5ccnn5Cc5cccc6cn[nH]c56)cc43)cc2[nH]1` [Example 242], the IC50 was above 1000 nM.

In the case of `O=c1[nH]c2ccc(-n3nnc4c(F)cc(-c5ccnn5Cc5nc6ccccc6[nH]5)cc43)cc2[nH]1` [Example 243], the IC50 is 100 to 1000 nM.

Turning to `Cc1ncc(Cn2nccc2-c2cc(Cl)c3nnn(-c4ccc5[nH]c(=O)[nH]c5c4)c3c2)o1` [Example 244], the IC50 is above 1000 nM.

Take `COc1ccc(Cn2nccc2-c2cc(F)c3nnn(-c4ccc5[nH]c(=O)[nH]c5c4)c3c2)c(F)c1` [Example 245]: the IC50 lay within 100 to 1000 nM.

For the molecule `COc1ccc(Cn2nccc2-c2cc(F)c3nnn(-c4ccc5[nH]c(=O)[nH]c5c4)c3c2)c(Cl)c1` [Example 246], the IC50 was in the range of 100 to 1000 nM.

On to `COc1ccc(Cn2nccc2-c2cc3c(cn2)nnn3-c2ccc3[nH]c(=O)[nH]c3c2)c(F)c1` [Example 247], for which the IC50 fell in the range of 100 to 1000 nM.

For `COc1ccc(Cn2nccc2-c2cc3c(cn2)nnn3-c2ccc3[nH]c(=O)[nH]c3c2)c(Cl)c1` [Example 248], the IC50 is 100 to 1000 nM.

As for `Cn1nccc1Cn1nccc1-c1cc(F)c2nnn(-c3ccc4[nH]c(=O)[nH]c4c3)c2c1` [Example 249], the IC50 is above 1000 nM.

With `N#Cc1ccc(Cn2nccc2-c2cc(Cl)c3nnn(-c4ccc5[nH]c(=O)[nH]c5c4)c3c2)c(Cl)c1` [Example 250], the IC50 is below 100 nM.

Consider `CS(=O)(=O)Nc1cc(Cl)ccc1Cn1nccc1-c1cc(F)c2nnn(-c3ccc4[nH]c(=O)[nH]c4c3)c2c1` [Example 251], for which the IC50 is above 1000 nM.

For the molecule `O=c1[nH]c2ccc(-n3nnc4c(Cl)cc(-c5ccnn5Cc5cc(F)ccc5F)cc43)cc2[nH]1` [Example 252], the IC50 was above 1000 nM.

Consider `Cc1ccc(Cn2nccc2-c2cc(Cl)c3nnn(-c4ccc5[nH]c(=O)[nH]c5c4)c3c2)c(F)c1F` [Example 253], for which the IC50 is 100 to 1000 nM.

For `O=c1[nH]c2ccc(-n3nnc4c(Cl)cc(-c5ccnn5Cc5ccc(F)c(F)c5)cc43)cc2[nH]1` [Example 254], the IC50 fell in the range of 100 to 1000 nM.

`N#Cc1cnc(Cn2nccc2-c2cc(F)c3nnn(-c4ccc5[nH]c(=O)[nH]c5c4)c3c2)c(F)c1` [Example 255]: the IC50 fell in the range of 100 to 1000 nM.

On to `O=c1[nH]c2ccc(-n3nnc4c(Cl)cc(-c5ccnn5Cc5cc(F)c(Cl)cc5Cl)cc43)cc2[nH]1` [Example 256], for which the IC50 lay in the range of 100 to 1000 nM.

For the molecule `O=c1[nH]c2ccc(-n3nnc4c(F)cc(-c5ccnn5Cc5ccc6[nH]cnc6c5)cc43)cc2[nH]1` [Example 257], the IC50 is above 1000 nM.

Consider `CC(C)c1cccc(-n2nccc2-c2cc(Cl)c3nnn(-c4ccc5[nH]c(=O)[nH]c5c4)c3c2)c1` [Example 258], for which the IC50 was in the range of 100 to 1000 nM.

With `CS(=O)(=O)c1cc(C#N)ccc1Cn1nccc1-c1cc(F)c2nnn(-c3ccc4[nH]c(=O)[nH]c4c3)c2c1` [Example 260], the IC50 was in the range of 100 to 1000 nM.

On to `CCS(=O)(=O)c1cc(C#N)ccc1Cn1nccc1-c1cc(F)c2nnn(-c3ccc4[nH]c(=O)[nH]c4c3)c2c1` [Example 261], for which the IC50 was in the range of 100 to 1000 nM.

Turning to `O=c1[nH]c2ccc(-n3nnc4c(Cl)cc(-c5ccnn5C5CCc6cc(Cl)ccc65)cc43)cc2[nH]1` (stereo not shown) [Example 262], the half-maximal inhibitory concentration (IC50) was in the range of 100 to 1000 nM.

With `Cc1cc(-n2nccc2-c2cc(Cl)c3nnn(-c4ccc5[nH]c(=O)[nH]c5c4)c3c2)ccc1Cl` [Example 263], the IC50 is above 1000 nM.
